Like-named read-outs stand apart in the source and are kept apart here.
Assays:
Type in all cases: in vivo
[1] = tested on: Alopecurus myosuroides (ALOMY); assay: Pre-emergence herbicidal action against ALOMY; details: scored visually after about 3 weeks, 100% = plants have died
Summary of the method: (§1)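 Read-out is visual percent damage relative to untreated pots, with 100% meaning dead plants and 0% meaning no difference, assessed roughly three weeks after treatment. Compounds were applied pre-emergence to the covering soil at up to 320 g/ha.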

[2] = tested on: Amaranthus retroflexus (AMARE); assay: Pre-emergence herbicidal action against AMARE; details: visual scoring after about 3 weeks vs untreated controls
Summary of the method: as §1

[3] = tested on: Avena fatua (AVEFA); assay: Pre-emergence herbicidal action against AVEFA; details: visual scoring after about 3 weeks vs untreated controls
Summary of the method: as §1

[4] = tested on: Echinochloa crus-galli (ECHCG); assay: Pre-emergence herbicidal action against ECHCG; details: dosage 320 g/ha
Summary of the method: as §1

[5] = tested on: Lolium rigidum (LOLRI); assay: Pre-emergence herbicidal action against LOLRI
Summary of the method: as §1

[6] = tested on: Matricaria inodora (MATIN); assay: Pre-emergence herbicidal action against MATIN; details: dosage 320 g/ha
Summary of the method: as §1

[7] = tested on: Pharbitis purpurea (PHBPU); assay: Pre-emergence herbicidal action against PHBPU; details: dosage 320 g/ha
Summary of the method: as §1

[8] = tested on: Polygonum convolvulus (POLCO); assay: Pre-emergence herbicidal action against POLCO
Summary of the method: as §1

[9] = tested on: Setaria viridis (SETVI); assay: Pre-emergence herbicidal action against SETVI
Summary of the method: as §1

[10] = tested on: Verconica persica (VERPE); assay: Pre-emergence herbicidal action against VERPE
Summary of the method: as §1

[11] = tested on: Viola tricolor (VIOTR); assay: Pre-emergence herbicidal action against VIOTR; details: 320 g/ha, Viola tricolor
Summary of the method: as §1

[12] = tested on: Alopecurus myosuroides (ALOMY); assay: Post-emergence herbicidal action against ALOMY; details: visual rating about 3 weeks after treatment vs untreated controls (100% = plants have died, 0% = like control plants)
Summary of the method: (§2)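 Post-emergence greenhouse spray, one-leaf stage, 600 l/ha water plus 0.5% additive; WP or EC formulations; application rates 320 g/ha or lower. Visual % damage vs untreated controls at ~3 weeks.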

[13] = tested on: Amaranthus retroflexus (AMARE); assay: Post-emergence herbicidal action against AMARE
Summary of the method: as §2

[14] = tested on: Avena fatua (AVEFA); assay: Post-emergence herbicidal action against AVEFA; details: visual rating about 3 weeks after treatment
Summary of the method: as §2

[15] = tested on: Echinochloa crus-galli (ECHCG); assay: Post-emergence herbicidal action against ECHCG
Summary of the method: as §2

[16] = tested on: Lolium rigidum (LOLRI); assay: Post-emergence herbicidal action against LOLRI; details: dosage 320 g/ha
Summary of the method: as §2

[17] = tested on: Matricaria inodora (MATIN); assay: Post-emergence herbicidal action against MATIN
Protocol: Seeds of monocotyledonous and dicotyledonous weeds and crop plants are placed in sandy loam in plastic or organic planting pots, covered with soil and cultivated in a greenhouse under controlled growth conditions. 2 to 3 weeks after sowing, the test plants are treated at the one-leaf stage. The compounds of the invention, formulated in the form of wettable powders (WP) or as emulsion concentrates (EC), are then sprayed onto the green parts of the plants as aqueous suspension or emulsion with addition of 0.5% additive at a water application rate of 600 l/ha (converted). After the test plants have been kept in the greenhouse under optimum growth conditions for about 3 weeks, the activity of the preparations is rated visually in comparison to untreated controls. For example, 100% activity=the plants have died, 0% activity=like control plants.
Tables B1 to B13 below show the effects of selected compounds of the general formula (I) according to Table 1 on various harmful plants and at an application rate corresponding to 320 g/ha or lower, which were obtained by the experimental procedure mentioned above. The appendices “a”, “b” and “c” give differentiation by dosage used with otherwise the same harmful plants tested.

[18] = tested on: Pharbitis purpurea (PHBPU); assay: Post-emergence herbicidal action against PHBPU
Summary of the method: as §2

[19] = tested on: Setaria viridis (SETVI); assay: Post-emergence herbicidal action against SETVI
Summary of the method: as §2

[20] = tested on: Verconica persica (VERPE); assay: Post-emergence herbicidal action against VERPE
Summary of the method: as §2

[21] = tested on: Viola tricolor (VIOTR); assay: Post-emergence herbicidal action against VIOTR; details: 320 g/ha
Summary of the method: as §2

[22] = tested on: Oryza sativa (ORYSA); details: crop plant compatibility
Summary of the method: (§3)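 Percent effect on the crop was judged by eye against untreated controls, where 0% means like control and 100% means dead plants. Plants had been sprayed post-emergence at the one-leaf stage and then kept under optimum greenhouse conditions for about 3 weeks.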

[23] = tested on: Zea mays (ZEAMX); details: 20 g/ha, ZEAMX, effect in comparison to untreated controls
Summary of the method: as §3

[24] = 80 g/ha, visual rating about 3 weeks after treatment vs untreated controls (100% = plants have died, 0% = like control plants)
[25] = 320 g/ha, visual rating about 3 weeks after treatment
[26] = 80 g/ha, effect in comparison to untreated controls
[27] = 20 g/ha, effect vs untreated controls

Structure (SMILES) | Pre-emergence action against ALOMY ([1]; 80 g/ha) [%] | Pre-emergence action against ALOMY ([1]; 320 g/ha) [%] | Pre-emergence action against AMARE in % ([2]; 80 g/ha) [%] | Pre-emergence action against AMARE in % ([2]; 320 g/ha) [%] | Pre-emergence action against AVEFA in % ([3]; 320 g/ha) [%] | Pre-emergence action against ECHCG in % [4] [%] | Pre-emergence action against LOLRI in % ([5]; dosage 320 g/ha) [%] | Pre-emergence action against MATIN in % [6] [%] | Pre-emergence action against PHBPU in % [7] [%] | Pre-emergence action against POLCO in % ([8]; dosage 320 g/ha) [%] | Pre-emergence action against SETVI in % ([9]; dosage 80 g/ha) [%] | Pre-emergence action against SETVI in % ([9]; dosage 320 g/ha) [%] | Pre-emergence action against VERPE in % ([10]; dosage 80 g/ha) [%] | Pre-emergence action against VERPE in % ([10]; dosage 320 g/ha) [%] | Pre-emergence action against VIOTR in % [11] [%] | Post-emergence action against ALOMY in % ([12]; 80 g/ha) [%] | Post-emergence action against AMARE in % [13, 24] [%] | Post-emergence action against ECHCG in % ([15]; dosage 80 g/ha) [%] | Post-emergence action against MATIN in % ([17]; dosage 80 g/ha) [%] | Post-emergence action against VERPE in % ([20]; dosage 80 g/ha) [%] | further results
C=C(COC(=O)COc1nn(-c2ccccn2)c(-c2ccc(F)nc2)c1Br)C(=O)OC [Example I-370] | 80 | 100 | 100 | 100 | 90 | 100 | 100 | 100 | 90 | 100 | 100 | 100 | 90 | 100 | 100 | 100 | 80 | 80 | 80 | 90 | Pre-emergence action against AVEFA in % ([3]; 80 g/ha): 90%; Pre-emergence action against LOLRI in % ([5]; dosage 80 g/ha): 90%; Pre-emergence action against POLCO in % ([8]; dosage 80 g/ha): 80%; Post-emergence action against ALOMY in % ([12]; 320 g/ha): 100%; Post-emergence action against AMARE in % [13, 25]: 80%; Post-emergence action against AVEFA in % ([14]; 320 g/ha): 90%; Post-emergence action against ECHCG in % ([15]; dosage 320 g/ha): 80%; Post-emergence action against LOLRI in % [16]: 90%; Post-emergence action against MATIN in % ([17]; dosage 320 g/ha): 80%; Post-emergence action against PHBPU in % ([18]; dosage 80 g/ha): 80%; Post-emergence action against PHBPU in % ([18]; dosage 320 g/ha): 90%; Post-emergence action against SETVI in % ([19]; dosage 80 g/ha): 80%; Post-emergence action against SETVI in % ([19]; dosage 320 g/ha): 80%; Post-emergence action against VERPE in % ([20]; 320 g/ha, VERPE): 90%; Post-emergence action against VIOTR in % [21]: 80%; Post-emergence action against ORYSA in % [22, 26]: 0%
COC(=O)CCOC(=O)COc1nn(-c2ccccn2)c(-c2ccc(F)nc2)c1Br [Example I-116] | 90 | 100 | 90 | 100 | 90 | 100 | 100 | 90 | 90 | 90 | 90 | 100 | 90 | 90 | 90 | 90 | 90 | 80 | 80 | 80 | Post-emergence action against SETVI in % ([19]; dosage 80 g/ha): 80%; Post-emergence action against ORYSA in % [22, 27]: 10%; Post-emergence action against ORYSA in % [22, 26]: 10%; Post-emergence action against ZEAMX in % (crop plant compatibility) [23]: 20%
CS(=O)(=O)CCOC(=O)COc1nn(-c2ccccn2)c(-c2ccc(F)nc2)c1Br [Example I-313] | 90 | 100 | 90 | 100 | 90 | 100 | 100 | 90 | 80 | 80 | 100 | 100 | 80 | 90 | 90 | 90 | 80 | – | 80 | 90 | Pre-emergence action against POLCO in % ([8]; dosage 80 g/ha): 80%; Post-emergence action against ALOMY in % ([12]; 320 g/ha): 90%; Post-emergence action against AMARE in % [13, 25]: 90%; Post-emergence action against AVEFA in % ([14]; 320 g/ha): 80%; Post-emergence action against ECHCG in % ([15]; dosage 320 g/ha): 90%; Post-emergence action against LOLRI in % [16]: 90%; Post-emergence action against MATIN in % ([17]; dosage 320 g/ha): 90%; Post-emergence action against PHBPU in % ([18]; dosage 80 g/ha): 90%; Post-emergence action against PHBPU in % ([18]; dosage 320 g/ha): 90%; Post-emergence action against SETVI in % ([19]; dosage 80 g/ha): 90%; Post-emergence action against SETVI in % ([19]; dosage 320 g/ha): 90%; Post-emergence action against VERPE in % ([20]; 320 g/ha, VERPE): 90%; Post-emergence action against VIOTR in % [21]: 80%; Post-emergence action against ORYSA in % [22, 26]: 10%
O=C(O)COc1nn(-c2ccccn2)c(-c2ccc(F)nc2)c1Cl [Example I-98] | 90 | 100 | 100 | 100 | 80 | 100 | 100 | 90 | 90 | 90 | – | 100 | – | 100 | 100 | 90 | 80 | 80 | 80 | 80 | Post-emergence action against AVEFA in % ([14]; 80 g/ha): 80%; Post-emergence action against ORYSA in % [22, 27]: 10%; Post-emergence action against ZEAMX in % (crop plant compatibility) [23]: 10%

Source: patent US20240041042A1, “1-(PYRIDYL)-5-AZINYLPYRAZOLE DERIVATIVES, AND THEIR USE FOR CONTROL OF UNDESIRED PLANT GROWTH” (Bayer Aktiengesellschaft, priority 2020, published 2024)
